Assays:
[1] = test system: phospholipase A2 from Agkistrodon piscivorus piscivorus
[2] = test system: Naja naja naja phospholipase A2

ISIS 3196: GGG T GGG T ATA G AAG G GCT CC, P = S, SEQ ID NO 47 (GGGTGGGTATAGAAGGGCTCC; all phosphorothioate, sugars by position and methylation of C not given here)
IC50 [1]: ~3 µM | IC50 [2]: > 10 µM

— patent publication US20070015723A1, “Antiviral oligonucleotides having a conserved G4 core sequence” (priority 1992, published 2007)
